Results reported in the OligoGym collection.
Oligonucleotides are written 5' to 3', each unit as a sugar letter and its base; * is a phosphorothioate linkage, no mark a phosphodiester; rarer units and linkages stand in square brackets, end groups in braces. Plain capitals give the bases only. Oligonucleotides are given in HELM: sugar(base)linkage, 5' to 3'; d 2'-deoxyribose, r ribose, m 2'-O-methylribose, p phosphate. ss, as = sense and antisense strand; d = 2'-deoxy (DNA); r = 2'-OH (RNA)

Target: UBE2D3
Test: reporter assay of Huesken 2005
Conditions: siRNA
Further: test concentration or dose not given here.

Going from “RNA1{r(G)p.r(G)p.r(G)p.r(A)p.r(U)p.r(G)p.r(A)p.r(U)p.r(A)p.r(U)p.r(G)p.r(U)p.r(U)p.r(U)p.r(C)p.r(A)p.r(U)p.r(U)p.r(G)p.d(T)p.d(T)}|RNA2{r(C)p.r(A)p.r(A)p.r(U)p.r(G)p.r(A)p.r(A)p.r(A)p.r(C)p.r(A)p.r(U)p.r(A)p.r(U)p.r(C)p.r(A)p.r(U)p.r(C)p.r(C)p.r(C)p.d(C)p.d(A)}$$$RNA1{StrandType:ss}|RNA2{StrandType:as}$” to “RNA1{r(C)p.r(A)p.r(A)p.r(U)p.r(U)p.r(U)p.r(C)p.r(U)p.r(A)p.r(A)p.r(A)p.r(G)p.r(U)p.r(U)p.r(C)p.r(U)p.r(U)p.r(U)p.r(U)p.d(T)p.d(T)}|RNA2{r(A)p.r(A)p.r(A)p.r(A)p.r(G)p.r(A)p.r(A)p.r(C)p.r(U)p.r(U)p.r(U)p.r(A)p.r(G)p.r(A)p.r(A)p.r(A)p.r(U)p.r(U)p.r(G)p.d(T)p.d(T)}$$$RNA1{StrandType:ss}|RNA2{StrandType:as}$”, the normalised inhibition (eCFP-eYFP dual reporter) falls from 95% to 80.6%.

First: RNA1{r(A)p.r(C)p.r(A)p.r(A)p.r(U)p.r(U)p.r(C)p.r(A)p.r(U)p.r(U)p.r(U)p.r(U)p.r(C)p.r(C)p.r(U)p.r(A)p.r(C)p.r(A)p.r(G)p.d(T)p.d(T)}|RNA2{r(C)p.r(U)p.r(G)p.r(U)p.r(A)p.r(G)p.r(G)p.r(A)p.r(A)p.r(A)p.r(A)p.r(U)p.r(G)p.r(A)p.r(A)p.r(U)p.r(U)p.r(G)p.r(U)p.d(C)p.d(A)}$$$RNA1{StrandType:ss}|RNA2{StrandType:as}$
Second: RNA1{r(G)p.r(A)p.r(C)p.r(A)p.r(A)p.r(U)p.r(U)p.r(C)p.r(A)p.r(U)p.r(U)p.r(U)p.r(U)p.r(C)p.r(C)p.r(U)p.r(A)p.r(C)p.r(A)p.d(T)p.d(T)}|RNA2{r(U)p.r(G)p.r(U)p.r(A)p.r(G)p.r(G)p.r(A)p.r(A)p.r(A)p.r(A)p.r(U)p.r(G)p.r(A)p.r(A)p.r(U)p.r(U)p.r(G)p.r(U)p.r(C)p.d(A)p.d(A)}$$$RNA1{StrandType:ss}|RNA2{StrandType:as}$
The normalised inhibition (eCFP-eYFP dual reporter) of the first is lower: 76.2% for the first, 92.3% for the second.

Compared with “RNA1{r(U)p.r(C)p.r(A)p.r(C)p.r(U)p.r(G)p.r(C)p.r(U)p.r(A)p.r(U)p.r(G)p.r(U)p.r(G)p.r(A)p.r(U)p.r(C)p.r(C)p.r(A)p.r(A)p.d(T)p.d(T)}|RNA2{r(U)p.r(U)p.r(G)p.r(G)p.r(A)p.r(U)p.r(C)p.r(A)p.r(C)p.r(A)p.r(U)p.r(A)p.r(G)p.r(C)p.r(A)p.r(G)p.r(U)p.r(G)p.r(A)p.d(A)p.d(C)}$$$RNA1{StrandType:ss}|RNA2{StrandType:as}$”, “RNA1{r(C)p.r(A)p.r(A)p.r(G)p.r(A)p.r(A)p.r(U)p.r(U)p.r(U)p.r(A)p.r(U)p.r(C)p.r(A)p.r(U)p.r(C)p.r(C)p.r(A)p.r(A)p.r(A)p.d(T)p.d(T)}|RNA2{r(U)p.r(U)p.r(U)p.r(G)p.r(G)p.r(A)p.r(U)p.r(G)p.r(A)p.r(U)p.r(A)p.r(A)p.r(A)p.r(U)p.r(U)p.r(C)p.r(U)p.r(U)p.r(G)p.d(T)p.d(T)}$$$RNA1{StrandType:ss}|RNA2{StrandType:as}$” is lower in normalised inhibition (eCFP-eYFP dual reporter): 95.2% for the first, 93.1% for the second.

In the case of “RNA1{r(C)p.r(U)p.r(A)p.r(A)p.r(G)p.r(G)p.r(U)p.r(U)p.r(G)p.r(C)p.r(A)p.r(U)p.r(U)p.r(U)p.r(A)p.r(C)p.r(A)p.r(A)p.r(C)p.d(T)p.d(T)}|RNA2{r(G)p.r(U)p.r(U)p.r(G)p.r(U)p.r(A)p.r(A)p.r(A)p.r(U)p.r(G)p.r(C)p.r(A)p.r(A)p.r(C)p.r(C)p.r(U)p.r(U)p.r(A)p.r(G)p.d(G)p.d(T)}$$$RNA1{StrandType:ss}|RNA2{StrandType:as}$”, the normalised inhibition (eCFP-eYFP dual reporter) is reported as 80.9%.

Target: UBE2T
Test: reporter assay of Huesken 2005
Conditions: siRNA

Compared with “sense rGrCrUrCrArArArUrArUrUrArGrGrUrGrGrArGdTdT / antisense rCrUrCrCrArCrCrUrArArUrArUrUrUrGrArGrCdTdC”, “sense rCrCrArArArArGrGrUrGrCrUrUrGrGrArGrArCdTdT / antisense rGrUrCrUrCrCrArArGrCrArCrCrUrUrUrUrGrGdTdG” is lower in normalised inhibition (eCFP-eYFP dual reporter): 87.1% for the first, 84.9% for the second.

Compared with “sense rUrGrArArCrCrUrCrCrUrCrArGrArUrCrCrGrAdTdT / antisense rUrCrGrGrArUrCrUrGrArGrGrArGrGrUrUrCrAdAdA”, “sense rUrArUrUrArGrGrUrGrGrArGrCrCrArArCrArCdTdT / antisense rGrUrGrUrUrGrGrCrUrCrCrArCrCrUrArArUrAdTdT” is lower in normalised inhibition (eCFP-eYFP dual reporter): 105% for the first, 57.4% for the second.

First: sense rGrArArGrGrCrCrArGrUrCrArGrCrUrArGrUrAdTdT / antisense rUrArCrUrArGrCrUrGrArCrUrGrGrCrCrUrUrCdCdT
Second: sense rArGrArArUrGrCrCrArGrArCrArGrUrGrGrArCdTdT / antisense rGrUrCrCrArCrUrGrUrCrUrGrGrCrArUrUrCrUdTdG
The normalised inhibition (eCFP-eYFP dual reporter) of the first is lower: 91.9% for the first, 95% for the second.

First: sense rGrArArGrArGrArUrGrCrUrUrGrArUrArArUrCdTdT / antisense rGrArUrUrArUrCrArArGrCrArUrCrUrCrUrUrCdCdT
Second: sense rArUrUrCrCrUrGrArGrArGrGrUrArCrCrCrArUdTdT / antisense rArUrGrGrGrUrArCrCrUrCrUrCrArGrGrArArUdGdA
The normalised inhibition (eCFP-eYFP dual reporter) of the first is lower: 85.9% for the first, 114% for the second.

Compared with “sense rGrCrUrGrArUrGrArGrGrArArGrArGrArUrGrCdTdT / antisense rGrCrArUrCrUrCrUrUrCrCrUrCrArUrCrArGrCdCdT”, “sense rArGrGrUrArCrCrCrArUrUrUrGrArArCrCrUrCdTdT / antisense rGrArGrGrUrUrCrArArArUrGrGrGrUrArCrCrUdCdT” is lower in normalised inhibition (eCFP-eYFP dual reporter): 73.8% for the first, 63.1% for the second.

Compared with “sense rUrArArArGrArCrCrArArArUrGrGrArUrGrArCdTdT / antisense rGrUrCrArUrCrCrArUrUrUrGrGrUrCrUrUrUrAdTdC”, “sense rArGrGrArArGrArGrArUrGrCrUrUrGrArUrArAdTdT / antisense rUrUrArUrCrArArGrCrArUrCrUrCrUrUrCrCrUdCdA” is higher in normalised inhibition (eCFP-eYFP dual reporter): 63.2% for the first, 113% for the second.

Going from “sense rCrCrCrUrCrArArCrArUrCrGrCrArArCrUrGrUdTdT / antisense rArCrArGrUrUrGrCrGrArUrGrUrUrGrArGrGrGdAdT” to “sense rCrArGrArGrUrArCrArCrArArCrUrCrArArCrAdTdT / antisense rUrGrUrUrGrArGrUrUrGrUrGrUrArCrUrCrUrGdGdA”, the normalised inhibition (eCFP-eYFP dual reporter) falls from 106% to 83%.

Going from “sense rCrGrArGrCrUrCrArArArUrArUrUrArGrGrUrGdTdT / antisense rCrArCrCrUrArArUrArUrUrUrGrArGrCrUrCrGdCdA” to “sense rArUrCrUrArCrCrArGrArGrGrCrUrGrGrUrGrAdTdT / antisense rUrCrArCrCrArGrCrCrUrCrUrGrGrUrArGrArUdTdA”, the normalised inhibition (eCFP-eYFP dual reporter) rises from 90% to 97%.

Going from “sense rArArCrCrCrArArCrCrCrUrGrArUrGrArCrCrCdTdT / antisense rGrGrGrUrCrArUrCrArGrGrGrUrUrGrGrGrUrUdCdT” to “sense rUrGrUrUrCrUrCrArArArUrUrGrCrCrArCrCrAdTdT / antisense rUrGrGrUrGrGrCrArArUrUrUrGrArGrArArCrAdTdC”, the normalised inhibition (eCFP-eYFP dual reporter) rises from 52.7% to 53.3%.

Compared with “sense rCrCrArArArUrGrGrArUrGrArCrCrUrGrCrGrAdTdT / antisense rUrCrGrCrArGrGrUrCrArUrCrCrArUrUrUrGrGdTdC”, “sense rCrUrCrArArArUrUrGrCrCrArCrCrArArArArGdTdT / antisense rCrUrUrUrUrGrGrUrGrGrCrArArUrUrUrGrArGdAdA” is lower in normalised inhibition (eCFP-eYFP dual reporter): 95.3% for the first, 68.5% for the second.

Compared with “sense rCrUrUrCrCrUrCrArArGrArArUrGrCrCrArGrAdTdT / antisense rUrCrUrGrGrCrArUrUrCrUrUrGrArGrGrArArGdGdC”, “sense rArCrCrCrUrGrArUrGrArCrCrCrGrCrUrCrArUdTdT / antisense rArUrGrArGrCrGrGrGrUrCrArUrCrArGrGrGrUdTdG” is higher in normalised inhibition (eCFP-eYFP dual reporter): 76% for the first, 101% for the second.

Going from “sense rGrGrCrArUrCrArCrArUrGrUrUrGrGrCrArArGdTdT / antisense rCrUrUrGrCrCrArArCrArUrGrUrGrArUrGrCrCdTdG” to “sense rGrCrUrArGrUrArGrGrCrArUrArGrArArArArGdTdT / antisense rCrUrUrUrUrCrUrArUrGrCrCrUrArCrUrArGrCdTdG”, the normalised inhibition (eCFP-eYFP dual reporter) rises from 87.3% to 106%.

Going from “sense rCrUrUrArUrGrArGrArArArGrGrUrGrUrUrUrUdTdT / antisense rArArArArCrArCrCrUrUrUrCrUrCrArUrArArGdGdT” to “sense rGrCrUrUrGrArUrArArUrCrUrArCrCrArGrArGdTdT / antisense rCrUrCrUrGrGrUrArGrArUrUrArUrCrArArGrCdAdT”, the normalised inhibition (eCFP-eYFP dual reporter) rises from 92.5% to 101%.

First: sense rCrUrCrCrArArUrUrUrArUrCrArUrCrCrArArAdTdT / antisense rUrUrUrGrGrArUrGrArUrArArArUrUrGrGrArGdTdG
Second: sense rGrArArGrCrArUrGrCrArArGrArCrArGrArArAdTdT / antisense rUrUrUrCrUrGrUrCrUrUrGrCrArUrGrCrUrUrCdTdC
The normalised inhibition (eCFP-eYFP dual reporter) of the first is higher: 107% for the first, 97.1% for the second.

Compared with “sense rArCrArUrArUrCrCrUrCrArGrArArUrUrUrArAdTdT / antisense rUrUrArArArUrUrCrUrGrArGrGrArUrArUrGrUdCdA”, “sense rUrCrArArCrArUrCrGrCrArArCrUrGrUrGrUrUdTdT / antisense rArArCrArCrArGrUrUrGrCrGrArUrGrUrUrGrAdGdG” is lower in normalised inhibition (eCFP-eYFP dual reporter): 114% for the first, 103% for the second.

Compared with “sense rUrCrArCrUrCrCrArArUrUrUrArUrCrArUrCrCdTdT / antisense rGrGrArUrGrArUrArArArUrUrGrGrArGrUrGrAdGdA”, “sense rGrArUrUrUrGrUrCrUrGrGrArUrGrUrUrCrUrCdTdT / antisense rGrArGrArArCrArUrCrCrArGrArCrArArArUrCdCdT” is higher in normalised inhibition (eCFP-eYFP dual reporter): 56.8% for the first, 75% for the second.

Going from “sense rArCrCrUrCrCrUrCrArGrArUrCrCrGrArUrUrUdTdT / antisense rArArArUrCrGrGrArUrCrUrGrArGrGrArGrGrUdTdC” to “sense rUrGrGrUrGrArCrUrCrCrArGrArGrUrArCrArCdTdT / antisense rGrUrGrUrArCrUrCrUrGrGrArGrUrCrArCrCrAdGdC”, the normalised inhibition (eCFP-eYFP dual reporter) falls from 100% to 80.3%.
